Tests used:
[1] = in vivo; cited from earlier work
healthy volunteers = test: crossover d-amphetamine study in healthy volunteers; format: in vivo; conditions: 100 mg pretreatment, 15 mg d-amphetamine, vs placebo
Method: Similarly, in a second crossover study in healthy volunteers administered 15 mg d-amphetamine following pretreatment with 100 mg SCH 39166 or placebo, attenuation of amphetamine euphoric (FIG. 12) and dysphoric (FIG. 13) effects were also observed for SCH 39166 in comparison with the placebo.

rodent = rodent model of food craving and relapse after food restriction; format: in vivo
Text: (§1) While not wishing to be bound by any theory, D1/D5 antagonists and/or D1/D5 partial agonists may prevent dietary relapse in the treatment of obesity by blocking the rewarding effects of dopamine at the D1/D5 sites associated with cravings.

[2] = system: cocaine-dependent patients; test: multi-center double blind study in cocaine-dependent patients, interim analysis (Example 6); format: in vivo; conditions: for Patients with Weight Loss ≧5 lb. / Weight Change: patients completing ≧28 days of treatment
Method: In a multi-center double blind study an interim analysis had been conducted on approximately 160 cocaine-dependent patients who had been given daily doses of 10 mg, 25 or 100 mg of SCH39166 or of a placebo over a test period of eight weeks.
The Body Mass Index (BMI) and the patient weight were measured at the beginning and end of the study. The BMI is determined by the weight (kg)/height^2 (meters). Patients having BMI's of 20.0-24.9 are considered to be of normal weight, while patients having BMI's over 25.0 are considered to be overweight.
Table 1B indicates the percentage of patients with an initial BMI of 22 or less and the percentage of patients with a BMI of at least 26 who lost at least one unit of BMI.

[3] = system: adult male rats (strain: CD); test: bar press for food on fixed-ratio schedule FR30 (Example 3); format: in vivo
Method: In this example, adult male rats (strain: CD) were trained to bar press for food on a fixed-ratio schedule of 30 (FR30). A rat had to press a bar 30 times in order to receive one 45 mg pellet of food. Each training session was 30 minutes long. The total response rate (total # of bar presses/30 minutes), i.e., the rate at which rats pressed the bar, was measured and then analyzed in animals that were initially given saline (control animals) and then doses of the D1/D5 antagonists SCH23390 or SCH39166. Each group of six animals received one dose of drug given subcutaneously in a volume of 1 ml/kg 30 minutes before the start of the session.

[4] = system: people who previously had exhibited a cocaine addiction; format: in vivo, humans
Method: In a double-blind study, the subjects were administered placebo 10 mg of SCH39166, 25 mg of SCH 39166, or 100 mg of SCH 39166 two hours prior to an injection of […] of cocaine. Systolic and diastolic blood pressure in the individuals was measured from 2 hours prior to cocaine injection until approximately 4 hours after cocaine administration.
In the same study, the desire to take cocaine was measured as a function of time after administration of placebo or varying doses of SCH 39166. The desire to take cocaine was measured by the Visual Analog Scale test. This test procedure is described in the British Journal of Medical Psychology, Volume 47. pp 211-218 (1974). In this test the individuals are asked to subjectively rate their feelings to take cocaine on a scale of zero-100, with zero representing no desire at all and 100 representing the strongest feelings. As may be seen in FIG. 7, the euphoric “high” following cocaine administration was lower in patients who had been pre-treated with SCH 39166, particularly a dose of 100 mg.
Even if the compounds of this invention were effective in reducing craving to abused substances or food, individuals would be unlikely to take the craving-reducing drugs unless they had tolerable side effects. […] Therefore, usage of this compound should not be adversely affected by negative opinions of the individuals to whom the drug is administered nor should it cause stimulation following administration.

[5] = system: cocaine-dependent patients; test: multi-center double blind study in cocaine-dependent patients, interim analysis (Example 6); format: in vivo
[6] = system: adult male Sprague-Dawley (SD) rats; test: NPY-stimulated food intake in rats (Example 5); format: in vivo; conditions: 3 mpk ip 30 minutes before i.c.v. NPY
Method: In this experiment, a baseline food intake (in grams) was measured at time intervals of 2, 4, or 24 hours following interocerebral ventricular (i.c.v.) administration of neuropeptide “Y” (NPY), a compound that stimulates an animal to consume food. A 3 μg/5 μl volume of NPY was administered to adult male Sprague-Dawley (SD) rats. On test day, three groups of rats (five rats per group) were pretreated with SCH39166 according to the following dosing schedule:
A dose of SCH39166 was injected intraperitoneally (ip). Thirty minutes later, a […] i.c.v. injection of NPY was administered. The control animals received an ip injection of the vehicle methylcellulose. Thirty minutes later, animals received NPY ([…]). A second group received 1 mpk of SCH39166 ip, and thirty minutes later received […] of NPY. A third group of animals received 3 mpk of SCH39166 ip and thirty minutes later received […] of NPY. Food intake was measured 2 hours, 4 hours, and 24 hours following NPY administration.

ob/ob mice = test: food intake in genetically obese ob/ob mice (Example 4); format: in vivo; conditions: 3.0 mg/kg ip, p<0.02
Method: Twenty four male mice of a genetically obese strain, i.e. ob/ob mice, aged 16 weeks were individually housed in Nalgene metabolism cages in a reverse light cycle room for the entire duration of the study. Mice were allowed food and water ad libitum. The mice were divided into 5 groups of 4-5 mice each based on baseline food intake and body weight. Mice were dosed intraperitoneally (ip) with vehicle, 0.003, 0.03, 0.3, or 3.0 mg/kg SCH 39166 at the onset of the dark cycle and a known mass of standard rodent chow was provided. Food consumption was measured after five hours, and another ip injection of vehicle or drug was given. Food intake was measured again at 24 hours after the initial injection. These injections and measurements were continued for 72 hours. Seventy two hour cumulative food intake was decreased 17% at 3.0 mg/kg (p<0.02).

monkeys = monkeys administered SCH 39166; cited from earlier work
primate = primate model of food craving and relapse after food restriction; format: in vivo
Text: as §1

male CF-1 mice = test: cocaine induced locomotor stimulation in mice (Example 1); format: in vivo; conditions: for cocaine induced increase in locomotor activity: oral dose 20 minutes before cocaine sc; for locomotor activity, drug administered alone: oral dose, 8 minute period
Method: Cocaine-produced increases in locomotor activity were blocked by D1/D5 antagonists, but not by D2/D3 antagonists unless relatively high doses were used. In this example, a selective D1/D5 antagonist, SCH 39166, and a selective D2/D3 antagonist, raclopride, were studied on cocaine induced locomotor stimulation in male CF-1 mice. The mice were given an oral dose of SCH 39166, raclopride or vehicle, followed 20 minutes later by a dose of cocaine or vehicle administered subcutaneously (sc).

[7] = cocaine relapse model; cited from earlier work
[8] = up to 3 mg/k; cited from earlier work
[9] = in vivo; cited from earlier work; remark: listed apart in the source
[10] = daily doses of 10, 25 or 100 mg over eight weeks

For `O=C(CCCN1CCC(O)(c2ccc(Cl)cc2)CC1)c1ccc(F)cc1` [haloperidol], the adverse side effects [1] is listed as “significant adverse side effects, such as dysphoria, restlessness or stiffness”.
With `CN1CCc2cc(Cl)c(O)cc2[C@H]2c3ccccc3CC[C@@H]21` [SCH 39166, (−)- trans-6,7,7a,8,9,13b-hexahydro-3-chloro-2-hydroxy-N-methyl-5H-benzo [d]-naphtho-[2,1-b]azepine] the amphetamine dysphoric effects (healthy volunteers) was “attenuation”, the amphetamine euphoric effects (healthy volunteers) was “attenuation” and the “relapse associated with the effects of food and environmental cues associated with food” value (rodent) was “can block the relapse”. The “Patients with Weight Loss ≧1 BMI UNIT, Init. BMI ≦22” value ([2]; 10 mg daily) was 2/9 (22%), the “Patients with Weight Loss ≧1 BMI UNIT, Init. BMI ≧26” value ([2]; 10 mg daily) was 2/10 (20%) and the “Patients with Weight Loss ≧5 lb.” value ([2]; 10 mg daily) was 27%. The “Weight Change” value ([2]; 10 mg daily) was −1.4 pounds, the “% of Patients Abstaining from Alcohol for at Least 1 day” value ([2]; 10 mg dose) was 43% and the “% of Patients Abstaining from Alcohol for at Least 3 days” value ([2]; 10 mg dose) was 23%. For the same molecule, the “% of Patients At Least 3 Days Since Last Cigarette” value ([2]; 10 mg dose) was 27%, the “Patients with Weight Loss ≧1 BMI UNIT, Init. BMI ≦22” value ([2]; 25 mg daily) was 2/10 (20%) and the “Patients with Weight Loss ≧1 BMI UNIT, Init. BMI ≧26” value ([2]; 25 mg daily) was 4/13 (30%). The “Patients with Weight Loss ≧5 lb.” value ([2]; 25 mg daily) was 22%, the “Weight Change” value ([2]; 25 mg daily) was −0.9 pounds and the “% of Patients Abstaining from Alcohol for at Least 3 days” value ([2]; 25 mg dose) was 31%. The “% of Patients At Least 3 Days Since Last Cigarette” value ([2]; 25 mg dose) was 19%, the “% of Patients At Least One Day Since Last Cigarette” value ([2]; 25 mg dose) was 53% and the “Patients with Weight Loss ≧1 BMI UNIT, Init. BMI ≦22” value ([2]; 100 mg daily) was 1/6 (17%). The “Patients with Weight Loss ≧1 BMI UNIT, Init. BMI ≧26” value ([2]; 100 mg daily) was 10/14 (71%), the “Patients with Weight Loss ≧5 lb.” value ([2]; 100 mg daily) was 45% and the “Weight Change” value ([2]; 100 mg daily) was −3.3 pounds. The “% of Patients Abstaining from Alcohol for at Least 1 day” value ([2]; 100 mg dose) was 59%, the “% of Patients Abstaining from Alcohol for at Least 3 days” value ([2]; 100 mg dose) was 48% and the “% of Patients At Least 3 Days Since Last Cigarette” value ([2]; 100 mg dose) was 17%. The “% of Patients At Least One Day Since Last Cigarette” value ([2]; 100 mg dose) was 38%, the “reducing weight in the obese population” value ([2]; BMI of 26 or greater, particularly at 100 mg/day) was “especially effective in reducing weight” and the reducing alcohol consumption [2, 10] was “effective”. The reducing cigarette smoking [2, 10] was “effective”, the reducing cocaine usage [2, 10] was “did not show efficacy” and the reducing weight [2, 10] was “effective”. The reducing cigarette smoking ([2]; low doses) was “efficacious in reducing cigarette smoking”, the “bar press rate relative to saline-treated control animals” value ([3]; 0.01 mpk subcutaneously 30 minutes before session, FR30) was “significantly reduced the bar press rate” and the “response rate across doses” value ([3]; SCH 23390 0.003-0.03 mpk, SCH 39166 0.001-0.3 mpk, subcutaneously) was “dose-related decrease in response rate until responses were eliminated at the highest dose”. For the same molecule, the “reduction in cocaine desire” value ([4]; Visual Analog Scale, 100 mg) was “greatest reduction in cocaine desire”, the “desire to take cocaine” value ([4]; Visual Analog Scale, compared with placebo) was “significantly lower” and the “dysphoric effects, such as anxiety, after cocaine administration” value ([4]; Visual Analog Scale, pre-treated patients) was “lower”. The “euphoric "high" following cocaine administration” value ([4]; Visual Analog Scale, pre-treated patients, particularly a dose of 100 mg) was “lower”, the “"bad drug effects"” value ([4]; in vivo) was “not significantly different from the placebo” and the “systolic and diastolic blood pressure elevations caused by cocaine” value ([4]; in vivo, 30 mg/kg) was “did not adversely affect”. For the same molecule, the “% of Patients At Least One Day Since Last Cigarette” value ([5]; 10 mg dose) was 57%, the “% of Patients Abstaining from Alcohol for at Least 1 day” value ([5]; 25 mg dose) was 41% and the “food intake 2 hours after NPY administration” value [6] was “significant decrease in food intake”. The “seventy two hour cumulative food intake decrease” value (ob/ob mice) was 17%, the “increase in the dose of cocaine required to restore characteristic self-administration performances” value (monkeys) was ≥ 3 fold and the “relapse associated with the effects of food and environmental cues associated with food” value (primate) was “can block the relapse”. For the same molecule, the “cocaine induced increase in locomotor activity” value (male CF-1 mice) was “blocked the cocaine induced increase in locomotor activity at all doses of cocaine tested”, the “locomotor activity, drug administered alone” value (male CF-1 mice) was “dose dependent decrease in locomotor activity” and the “attenuation of cocaine-seeking behavior” value [7] was “able to attenuate the cocaine-seeking behavior”. The “effect on total food intake, meal size or feeding rate” value [8] was “no effect”.
For `CCN1CCC[C@H]1CNC(=O)c1c(O)c(Cl)cc(Cl)c1OC` [raclopride, reference compound], the “cocaine induced increase in locomotor activity” value (male CF-1 mice) is listed as “only affected the cocaine induced increase in locomotor activity at relatively high doses”, the “locomotor activity, drug administered alone” value (male CF-1 mice) is listed as “dose dependent decrease in locomotor activity” and the “block of the response-reinstating effects of food reinforcement” value [9] is listed as “sufficient to block the response-reinstating effects of food reinforcement”.

Reference: patent US20010025038A1, “Method of reducing craving in mammals” (priority 1997, published 2001)
